Experiment [1] has as its target T1, AR (LNCaP cells, which carry the T878A AR mutation) (Homo sapiens, UniProt P10275, T878A).
T1 construct: LNCaP cells, which carry the T878A AR mutation; endogenous in cells; host or cells: LNCaP (LN-ARR2PB-eGFP)
T1 sequence (P10275 1-920 T878A): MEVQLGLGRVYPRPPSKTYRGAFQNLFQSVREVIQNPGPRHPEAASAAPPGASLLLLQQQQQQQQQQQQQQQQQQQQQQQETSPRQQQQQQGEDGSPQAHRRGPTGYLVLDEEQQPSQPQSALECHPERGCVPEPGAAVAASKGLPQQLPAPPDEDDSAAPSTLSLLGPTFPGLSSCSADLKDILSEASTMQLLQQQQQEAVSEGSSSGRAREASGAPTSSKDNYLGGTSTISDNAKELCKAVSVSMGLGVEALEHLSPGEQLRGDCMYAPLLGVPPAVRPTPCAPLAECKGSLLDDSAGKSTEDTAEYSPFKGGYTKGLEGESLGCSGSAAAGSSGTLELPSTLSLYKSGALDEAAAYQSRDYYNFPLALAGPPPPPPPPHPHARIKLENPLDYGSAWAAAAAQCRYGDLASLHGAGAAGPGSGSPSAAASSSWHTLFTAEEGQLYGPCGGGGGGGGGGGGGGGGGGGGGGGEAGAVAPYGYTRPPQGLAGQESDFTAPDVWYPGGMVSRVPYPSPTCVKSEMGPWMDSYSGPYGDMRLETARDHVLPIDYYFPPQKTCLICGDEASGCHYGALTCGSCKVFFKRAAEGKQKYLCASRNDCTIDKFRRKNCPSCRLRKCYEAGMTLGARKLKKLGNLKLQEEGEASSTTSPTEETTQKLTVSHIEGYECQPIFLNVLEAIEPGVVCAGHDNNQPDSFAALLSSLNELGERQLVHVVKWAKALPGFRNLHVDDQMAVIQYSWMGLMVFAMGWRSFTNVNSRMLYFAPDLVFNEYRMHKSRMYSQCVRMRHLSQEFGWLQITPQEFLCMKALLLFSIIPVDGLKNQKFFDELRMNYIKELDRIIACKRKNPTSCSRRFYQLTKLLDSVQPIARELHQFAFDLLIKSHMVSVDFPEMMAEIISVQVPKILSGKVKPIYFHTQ
The experiment can be described thus: eGFP cellular AR transcription assay in LNCaP cells (LN-ARR2PB-eGFP). The experiment is classed as cell-based. The following applies: for Partial agonistic effect in eGFP assay: with R1881, high concentrations; for Anti-AR activity in eGFP assay: eGFP-expressing LNCaP cells. As to the method: AR transcriptional activity was assayed as previously described. Briefly, LNCaP human prostate cancer cells (LN-ARR2PB-eGFP), stably transfected with eGFP reporter driven by an androgen responsive probasin-derived promoter (ARR2PB), were grown in phenol red free RPMI 1640 media supplemented with 5% charcoal stripped serum (CSS). After 5 days, the cells were plated into a 96-well plate (35,000 cells/well) with 0.1 nM of the synthetic androgen R1881 and increasing concentrations (0−100 μM) of test compounds. Fluorescence (excitation 485 nm, emission 535 nm) was measured after 3 days of incubation with the compounds.

A further experiment concerns the target T2, T878A-AR mutant (Homo sapiens, UniProt P10275, T878A).
T2 construct: Full-length human wild type AR was cloned into pcDNA3.1 expression plasmid; expressed in transfected cells; host or cells: PC3
T2 sequence (P10275 1-920 T878A): T1 sequence (P10275 1-920 T878A)
The experiment can be described thus: Luciferase reporter assay, PC3 cells transfected with T878A-AR. The note with it: T878A-AR, high concentrations, absence of R1881. It is filed as cell-based. As to the method: Full-length human wild type AR was cloned into pcDNA3.1 expression plasmid (Invitrogen, Waltham, MA, USA) with a CMV promoter. The T878A mutant (T878A-AR) was generated with the Quikchange Mutagenesis Kit (Stratagene, San Diego, CA, USA) using hARWT plasmid as a template. Androgen-starved PC3 cells were seeded in 96-well plates (3000 cells/well) in RPMI 1640 + 5% CSS for 24 h followed by transfection with 50 ng of hARWT or hART878A along with 50 ng of ARR3tk-luciferase reporter construct (100 ng total plasmid DNA) and 0.3 µL/well TransIT20/20 transfection reagent (TT2020, Mirus, Madison, Wisconsin, WI, USA) for 48 h. […] Cell lysis was carried out with 60 µL 1X passive lysis buffer/well (Promega, Madison, Wisconsin, WI, USA). The luminescence from 20 µL of cell lysate and 50 µL of Luciferase assay reagent (Promega, Madison, Wisconsin, WI, USA) was recorded on a TECAN M200pro plate reader.
Background: A reporter such as luciferase makes a cellular process visible.

The target of another experiment is T3, Androgen Receptor ABS (Rattus norvegicus, UniProt P15207).
T3 construct: purchased
T3 sequence (P15207 647-902 limits assumed): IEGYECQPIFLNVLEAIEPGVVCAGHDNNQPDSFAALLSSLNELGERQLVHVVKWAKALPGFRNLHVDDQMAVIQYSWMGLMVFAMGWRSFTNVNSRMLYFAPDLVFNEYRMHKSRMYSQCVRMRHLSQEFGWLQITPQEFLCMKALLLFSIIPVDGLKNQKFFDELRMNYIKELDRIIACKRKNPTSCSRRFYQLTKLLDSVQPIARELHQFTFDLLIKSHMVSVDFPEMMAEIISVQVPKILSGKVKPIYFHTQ
The experiment can be described thus: Androgen (DHT) displacement, Polar Screen Androgen Receptor Competitor Green Assay Kit. It is filed as binding. The following applies: for Androgen displacement: at 50 µM; for Androgen Displacement (Yes/No): fluorescence polarization kit. As to the method: Androgen displacement was assessed with the Polar Screen Androgen Receptor Competitor Green Assay Kit as per the instructions of the manufacturer.
Background: Polarisation of emitted light reports the rotation of a fluorescent probe.

For another experiment, the target named is T4, T878A AR LBD (Homo sapiens, UniProt P10275, T878A).
T4 construct: made in house; host or cells: E. coli BL21-DE3 co-transformed with pBirACm
T4 sequence (P10275 669-900 T878A limits assumed): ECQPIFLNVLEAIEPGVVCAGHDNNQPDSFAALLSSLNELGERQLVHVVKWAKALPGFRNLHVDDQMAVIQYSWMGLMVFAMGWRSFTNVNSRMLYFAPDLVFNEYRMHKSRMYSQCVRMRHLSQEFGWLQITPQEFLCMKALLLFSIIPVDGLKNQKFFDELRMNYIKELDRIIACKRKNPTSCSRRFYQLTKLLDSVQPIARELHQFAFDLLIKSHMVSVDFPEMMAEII
Briefly: Biolayer interferometry (BLI), T878A LBD. It is filed as binding. As for the experimental part: (§1) The direct reversible interaction between small molecules and the AR was quantified by BLI using OctetRED (ForteBio, Fremont, CA, USA). The wild type and T878A-LDB in fusion with an N-terminal (His)6-avidin ([…]) tag were expressed in E. coli BL21-DE3 cells co-transformed with pBirACm plasmid (Avidity), which expresses a biotin ligase leading to the biotynilation of the avidin tag on the LBD. Cells were grown in LB media at 37 °C to an OD600nm = 0.5 and then induced with 0.5 mM isopropyl-β-D-thiogalactoside. A measure of 20 µM of dihydrotestosterone (DHT) and 0.15 mM biotin were added and the cells were incubated at 16 °C for 18 to 20 h. Cells were then resuspended and lysed in buffer containing 500 mM Li2SO4, 50mM HEPES pH7.2, 10% Glycerol, 0.1% Octyl-beta-Glucoside, 20 µM of DHT, 5 mM β-mercaptoethanol, 10 mM imidazole and 0.1 mM phenylmethanesulfonyl fluoride. […] After an overnight dialysis against 150 mM Li2SO4, 50 mM HEPES pH7.2, 10% Glycerol, 0.1% Octyl-beta-Glucoside, 20 µM of DHT and 0.2 mM tris(2-carboxyethyl)phosphine, purified proteins at 50 µg/mL were bound to the super-streptavidin sensors overnight at 4 °C. The assay was performed at 20 °C in the dialysis buffer supplemented with 5% dimethyl sulfoxide (DMSO) which was also used as our reference measurement.
(In general: In BLI a coated tip is dipped into the sample, and binding shifts an interference pattern.)

In a further experiment the target is T5, wild type AR LBD (Homo sapiens, UniProt P10275).
T5 construct: made in house; host or cells: E. coli BL21-DE3 co-transformed with pBirACm
T5 sequence (P10275 669-900 limits assumed): T4 sequence (P10275 669-900 T878A limits assumed) with A210T
Briefly: Biolayer interferometry (BLI), wild type LBD. The experiment is classed as binding. As for the experimental part: as §1

Experiment [2] has as its system AR with T878A and W742C mutations. Details: method as in PMID 12517791. The following applies: cited from earlier work.
Setting [3] is: LNCaP eGFP reporter (ARR2PB promoter), 0.1 nM R1881, 3 days.

Positions count from the first letter of the chain named.

For orientation: IC50 means the midpoint of a concentration-inhibition curve.

With `Brc1ncn(-c2csc(N3CCOCC3)n2)c1Br` [VPC14449], in experiment [1] (setting [3]), the IC50 was 150 ± 40 nM. Besides, the “Partial agonistic effect in eGFP assay” value in experiment [1] (LNCaP) is “no undesired partial agonistic effects were observed”. Moreover, the “Anti-AR activity in eGFP assay” value in experiment [1] was “maintained good potency”. Moreover, at T878A-AR mutant, the “Reduction of AR stimulation in comparison with VPC14368” value is recorded as ~ 80%. Further, the Androgen displacement at Androgen Receptor ABS and on Androgen Receptor ABS (listed as 14449) was less than 10% in each case. For the same molecule, the “Direct binding to T878A LBD by BLI” value on T878A AR LBD is reported as “not binding”. In addition, the “Direct binding to wild-type LBD by BLI” value on wild type AR LBD is “not binding”.
For `c1cncc(-c2csc(N3CCOCC3)n2)c1` [VPC14439], the “Concentration above which partial agonism is seen in the eGFP assay” value in experiment [1] (LNCaP, 0.1 nM R1881) is “above 3 µM”. Moreover, at Androgen Receptor ABS, the Androgen displacement is 30% and the “Androgen Displacement (Yes/No)” value was “Yes”.
In the case of `c1cc2c(cc1-c1csc(N3CCOCC3)n1)CCCC2` [VPC14291], the “Reporter eGFP IC50” value in experiment [1] (setting [3]) was “inactive”. Besides, the “Anti-AR activity in eGFP assay” value in experiment [1] is on record as “lost their anti-AR activity”.
The matching figures for `c1sc(N2CCOCC2)nc1C1CCCCC1` [VPC14406]: “inactive” and “lost their anti-AR activity”.
As for `c1ccc(-c2csc(N3CCOCC3)n2)nc1` [VPC14436], on Androgen Receptor ABS, the “Androgen Displacement (Yes/No)” value was “No”.
Turning to `c1sc(N2CCOCC2)nc1C1CCCC1` [VPC14403], the “Reporter eGFP IC50” value in experiment [1] (setting [3]) is “inactive”. Moreover, in experiment [1], the “Anti-AR activity in eGFP assay” value is reported as “lost their anti-AR activity”.
On to `c1cc(-c2csc(N3CCOCC3)n2)cs1` [VPC14404], for which the “Partial agonistic effect in eGFP assay” value in experiment [1] (LNCaP) is on record as “no undesired partial agonistic effects were observed”. For the same molecule, the “Anti-AR activity in eGFP assay” value in experiment [1] was “maintained good potency”. The molecule also returned an Androgen displacement on Androgen Receptor ABS of less than 10%.
As for `c1cc(-c2csc(N3CCOCC3)n2)ccn1` [VPC14435], in experiment [1] (LNCaP), the “Partial agonistic effect in eGFP assay” value was “no undesired partial agonistic effects were observed”. In experiment [1], the “Anti-AR activity in eGFP assay” value was “maintained good potency”. Besides, on Androgen Receptor ABS, the “Androgen Displacement (Yes/No)” value is “No”.
As for `C[C@](O)(CS(=O)(=O)c1ccc(F)cc1)C(=O)Nc1ccc(C#N)c(C(F)(F)F)c1` [R-bicalutamide], the “Agonist behaviour on mutated AR” value in experiment [2] is listed as “acts as an agonist only when the T878A mutation is also coupled with W742C”.

Source of the values: PMC9497135, “Structure-Based Study to Overcome Cross-Reactivity of Novel Androgen Receptor Inhibitors” (Cells, 2022).
